The results in this text go back to patent US7582725B2, “Agents, which inhibit apoptosis in cells that are involved in wound healing” (Dermatools Biotech GmbH, priority 2001, dated 2009).

Common to all, as to assay type: cell-based
Experiment [1] relates to MRC-5 fibroblasts. In words: Tension-dependent apoptosis of MRC-5 fibroblasts in collagen matrices (relaxed), DAPI staining. As to conditions: relaxed collagen matrix. As to the method: 2×10^5 cells are seeded in each collagen matrix. For this purpose, 100 μl of the cell suspension (the appropriate cell titer is adjusted after the trypsinization in serum-free DMEM) are introduced into 1.5 ml reaction vessels pre-equilibrated at 37° C., 100 μl of the neutralized collagen solution are added, and the resulting solution is incubated at 37° C. for 4 min. The collagen concentration is 1.5 mg/ml. The cell/collagen suspension is seeded in 24-well cell culture plates or in 3.5 cm culture dishes. The matrix is polymerized at 37° C. for 60 min.
The matrices are covered with a layer of culture medium (DMEM+10% FCS+50 μg/ml ascorbic acid) and cultivated in an incubator at 37° C. and 8.5% by volume CO2 in a water vapor-saturated air atmosphere for 24 h.
The adherent matrix is cautiously detached with a spatula from the substrate and “floats” in the culture medium without contact with the substrate. The tension is abolished. The cultivation takes place for the period stated in each case.
The cells are cultivated as stated in example 11. Day “0” corresponds to the time after 24 h cultivation with ascorbic acid-containing medium before further cultivation under tensioned or relaxed conditions. After the stated times, the cell/collagen matrix is fixed in 4% (w/v) paraformaldehyde in PBS, followed by DAPI staining. […]

For experiment [2], the system named is MRC-5 fibroblasts. Description: Incubation of fibroblasts with anti-apoptotic peptides: TSP-1 induced apoptosis, DAPI staining. To be noted: 24 h; for Inhibition index [%]: 100−(measured apoptosis index*100/control apoptosis index), 1 μg/ml TSP-1 + peptide 1 mM; for Apoptosis index [%]: static, fresh medium with 1 μg/ml TSP-1 + peptide 1 mM, 3 independent experiments, average ± SD. As to the method:
The cells are cultivated under static culture conditions as in example 1/variant 1B1. The cells are seeded in the appropriate culture vessels (e.g. 24-well plate/0.5 ml per well) and employed for the test 3 days after complete confluence is reached. The cells are provided with new medium: • (a) fresh culture medium [basic rate of apoptosis] • (b) fresh culture medium with 1 μg/ml TSP-1 [apoptosis-inducing substance; control] • (c) culture medium (b)+peptide of SEQ ID NO 1; 1 mM • (d) culture medium (b)+peptide of SEQ ID NO 2; 1 mM • (e) culture medium (b)+peptide of SEQ ID NO 3; 1 mM • (f) culture medium (b)+peptide of SEQ ID NO 4; 1 mM • (g) culture medium (b)+peptide of SEQ ID NO 7; 1 mM • (h) culture medium (b)+peptide of SEQ ID NO 8; 1 mM • (i) culture medium (b)+peptide of SEQ ID NO 9; 1 mM • (j) culture medium (b)+peptide of SEQ ID NO 10; 1 mM • (k) culture medium (b)+peptide of SEQ ID NO 11; 1 mM • (l) culture medium (b)+peptide of SEQ ID NO 5; 1 mM • (m) culture medium (b)+peptide of SEQ ID NO 6; 1 mM
After incubation under culture conditions (example 1) for 24 h, the cells are fixed, stained with DAPI and examined morphologically under the fluorescence microscope. The apoptotic cells and the total number of cells are determined, and the apoptosis index is calculated (percent of apoptotic cells). The data from 3 independent experiments are indicated in the following table, indicating the averages and the standard deviation.
The inhibition index of the peptides employed is calculated as follows:
Inhibition index [%]=100−(measured apoptosis index* 100/control apoptosis index)

The subject of experiment [3] is MRC-5 fibroblasts. In words: Rate of apoptosis of statically cultivated MRC-5 fibroblasts, DAPI staining. To be noted: for Apoptosis [%]: static, 24 h, substance in fresh medium, or conditioned medium alone. The protocol:
The MRC-5 cell line used is seeded in ungelatinized cell culture vessels. The subsequent cultivation takes place in an incubator at 37° C. and 5% by vol. CO2 in a water vapor-saturated atmosphere. The culture medium is changed every second to third day and, after confluence is reached, the cells are passaged with a division rate from 1:5 to 1:10.
The culture supernatant from a Petri dish is aspirated off, and the cell lawn is fixed with 1 ml of formaldehyde solution on ice for 15 minutes, washed twice with 2 ml of PBS, treated with 0.5 ml of DAPI solution for 15 minutes, washed with PBS and evaluated under the fluorescence microscope. The UV filter set and a 20× or 40× objective are used. 500-1 000 cells are selected at random, and the cells with apoptotic nuclei are counted.
The apoptosis index is calculated by the following formula: […]
The used culture medium from a confluent MRC-5 fibroblast culture is removed, and the cell lawn is washed once with culture medium and cultivated under the stated conditions for 24 h.
The used culture medium from a confluent culture is removed, and the cell lawn is washed once with culture medium and cultivated under the stated conditions for 24 h.

Experiment [4] has as its system MRC-5 fibroblasts. Description: Rate of apoptosis of dynamically cultivated MRC-5 fibroblasts (cone and plate shear apparatus), DAPI staining. The protocol: The fibroblasts are initially cultivated under static conditions until confluence is reached. This is followed by cultivation under dynamic conditions in the cone and plate shear apparatus (after Bussolori et al. (1982) Rev. Sci. Instrum. 53, 1851-1854) for 24 h.
This is done by precultivation of the cells initially in gelatinized culture dishes (◯=35 mm) with 0.15 ml/cm^2 culture medium and then further cultivation under turbulent or laminar flow conditions in the cone and plate shear apparatus for a maximum of 24 h. The flow conditions result from the angle of the cone. The flow over the cells is turbulent at a cone angle of 5° and is laminar at a cone angle of 0.5°.
Before use, the cone and plate shear apparatus is cleaned with a soft cloth and 70% (v/v) ethanol, the cone is sterilized and the apparatus is equilibrated at 37° C. in a heating cabinet. […]
The culture supernatant from a Petri dish is aspirated off, and the cell lawn is fixed with 1 ml of formaldehyde solution on ice for 15 minutes, washed twice with 2 ml of PBS, treated with 0.5 ml of DAPI solution for 15 minutes, washed with PBS and evaluated under the fluorescence microscope. […] 500-1 000 cells are selected at random, and the cells with apoptotic nuclei are counted. […]

With `CO[C@@H]1C(=O)O[C@H](C)[C@H](C)/C=C(\C)C[C@H](C)C(=O)N[C@@H](C)C(=O)N(C)[C@H](Cc2c[nH]c3ccccc23)C(=O)N[C@H]1c1ccc(O)cc1` [chondramide A, reference compound], the “Apoptosis [%]” value with MRC-5 fibroblasts [1] (Example 14, 1 μM for 1 h before detachment, 8 h further cultivation) amounted to 1.0 ± 0.2%.

With “K-R-A-Y-V-V-M-W-K-K (KRAYVVMWKK) [SEQ ID NO 5]”, in the experiment with MRC-5 fibroblasts [2], the “Inhibition index [%]” value is listed as 90.1 ± 4.9% and the “Apoptosis index [%]” value came out at 0.42 ± 0.21%.

Consider “K-R-E-Y-V-V-M-W-K-K (KREYVVMWKK) [SEQ ID NO 6]”, for which, in the experiment with MRC-5 fibroblasts [2], the “Inhibition index [%]” value was 94.4 ± 4.2% and the “Apoptosis index [%]” value is on record as 0.24 ± 0.18%.

Consider R-A-Y-V-V-M (RAYVVM) [SEQ ID NO 1], for which, in the experiment on MRC-5 fibroblasts [2], the “Inhibition index [%]” value amounted to 71.4 ± 6.8% and the “Apoptosis index [%]” value was found to be 1.21 ± 0.29%.

Turning to R-D-Y-V-V-M (RDYVVM) [SEQ ID NO 11], in the experiment on MRC-5 fibroblasts [2], the “Inhibition index [%]” value came to 38.9 ± 16.7% and the “Apoptosis index [%]” value is reported as 2.66 ± 0.71%.

For R-E-Y-V-V-M (REYVVM) [SEQ ID NO 4], in the experiment with MRC-5 fibroblasts [2], the “Inhibition index [%]” value is 80.4 ± 7.0% and the “Apoptosis index [%]” value turned out to be 0.87 ± 0.32%.

On to R-G-Y-V-V-M (RGYVVM) [SEQ ID NO 7], for which, in the experiment with MRC-5 fibroblasts [2], the “Inhibition index [%]” value was 53.7 ± 13.9% and the “Apoptosis index [%]” value worked out at 2.00 ± 0.59%.

Regarding R-M-Y-V-V-M (RMYVVM) [SEQ ID NO 8], in the experiment on MRC-5 fibroblasts [2], the “Inhibition index [%]” value stood at 42.8 ± 6.9% and the “Apoptosis index [%]” value is 2.46 ± 0.29%.

For the compound R-N-Y-V-V-M (RNYVVM) [SEQ ID NO 10], in the experiment on MRC-5 fibroblasts [2], the “Inhibition index [%]” value is reported as 13.5 ± 16.2% and the “Apoptosis index [%]” value is on record as 3.70 ± 1.11%.

Turning to R-T-Y-V-V-M (RTYVVM) [SEQ ID NO 9], in the experiment on MRC-5 fibroblasts [2], the “Inhibition index [%]” value is 25.4 ± 11.8% and the “Apoptosis index [%]” value is recorded as 3.19 ± 0.50%.

For R-W-Y-V-V-M (RWYVVM) [SEQ ID NO 2], in the experiment on MRC-5 fibroblasts [2], the “Inhibition index [%]” value was 53.7 ± 6.8% and the “Apoptosis index [%]” value is on record as 2.00 ± 0.29%.

Take R-Y-Y-V-V-M (RYYVVM) [SEQ ID NO 3]: in the experiment with MRC-5 fibroblasts [2], the “Inhibition index [%]” value is 65.3 ± 0.9% and the “Apoptosis index [%]” value was 1.45 ± 0.04%.

On to thrombospondin 1 [TSP-1], for which the “Apoptosis [%]” value in the experiment with MRC-5 fibroblasts [3] (Example 6) was determined as 5.6 ± 0.2%; in the experiment with MRC-5 fibroblasts [3] (Example 7) it was 5.6 ± 0.2%; in the experiment on MRC-5 fibroblasts [4] (dynamic cultivation, 24 h, conditioned medium alone or fresh medium + TSP-1), 0.4 ± 0.1%; in the experiment with MRC-5 fibroblasts [1] (Example 13, DMEM/FCS + substance, 24 h, antibodies 50 μg/ml, Tsp1 20 μg/ml), 10.5 ± 0.5%. In addition, the “Effect on apoptosis of statically cultivated fibroblasts (in words)” value with MRC-5 fibroblasts [3] (static culture) is “increase in spontaneous apoptosis”. For the same compound, the “Effect on apoptosis of dynamic fibroblast cell culture (in words)” value with MRC-5 fibroblasts [4] (dynamic culture) is reported as “no effect on apoptosis”.
